Test results published in PubChem BioAssay (NCI).
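Dose response: 5 concentrations. Exposure: 48 h. Format: 96-well plates. Endpoint: linear interpolation; highest concentration if not reached. GI50 = concentration required for 50% inhibition of growth. Definition used: TGI = concentration required for complete inhibition of growth.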

Tests used:
Test in all cases: DTP human tumour cell line panel, 48 h
OVCAR-8 ovarian = tested on: OVCAR-8 ovarian
TK-10 renal = tested on: TK-10 renal
KM12 colon = tested on: KM12 colon
NCI-H522 lung = tested on: NCI-H522 lung
SK-OV-3 ovarian = tested on: SK-OV-3 ovarian
HCT-15 colon = tested on: HCT-15 colon
SF-268 CNS = tested on: SF-268 CNS
OVCAR-4 ovarian = tested on: OVCAR-4 ovarian
BT-549 breast = tested on: BT-549 breast
RPMI-8226 leukemia = tested on: RPMI-8226 leukemia
SW-620 colon = tested on: SW-620 colon
K-562 leukemia = tested on: K-562 leukemia
MCF7 breast = tested on: MCF7 breast
RXF 393 renal = tested on: RXF 393 renal
HL-60(TB) leukemia = tested on: HL-60(TB) leukemia
SK-MEL-2 melanoma = tested on: SK-MEL-2 melanoma
HCT-116 colon = tested on: HCT-116 colon
OVCAR-5 ovarian = tested on: OVCAR-5 ovarian
SK-MEL-28 melanoma = tested on: SK-MEL-28 melanoma
SF-539 CNS = tested on: SF-539 CNS
U251 CNS = tested on: U251 CNS
PC-3 prostate = tested on: PC-3 prostate
MDA-MB-231 breast = tested on: MDA-MB-231 breast
SF-295 CNS = tested on: SF-295 CNS
ACHN renal = tested on: ACHN renal
MALME-3M melanoma = tested on: MALME-3M melanoma
A549 NSCLC = tested on: A549 NSCLC
SNB-75 CNS = tested on: SNB-75 CNS
DU-145 prostate = tested on: DU-145 prostate
SR leukemia = tested on: SR leukemia
OVCAR-3 ovarian = tested on: OVCAR-3 ovarian
UACC-257 melanoma = tested on: UACC-257 melanoma
CCRF-CEM leukemia = tested on: CCRF-CEM leukemia
LOX IMVI melanoma = tested on: LOX IMVI melanoma
HOP-62 NSCLC = tested on: HOP-62 NSCLC
NCI-H460 lung = tested on: NCI-H460 lung
SNB-19 CNS = tested on: SNB-19 CNS
UO-31 renal = tested on: UO-31 renal
MDA-MB-435 = tested on: MDA-MB-435
MOLT-4 leukemia = tested on: MOLT-4 leukemia
HT29 colon = tested on: HT29 colon
NCI-H23 lung = tested on: NCI-H23 lung
HS 578T breast = tested on: HS 578T breast
A498 renal = tested on: A498 renal
EKVX NSCLC = tested on: EKVX NSCLC
SN12C renal = tested on: SN12C renal
CAKI-1 renal = tested on: CAKI-1 renal
NCI-H226 lung = tested on: NCI-H226 lung
NCI/ADR-RES ovarian = tested on: NCI/ADR-RES ovarian
UACC-62 melanoma = tested on: UACC-62 melanoma
786-0 renal = tested on: 786-0 renal
M14 melanoma = tested on: M14 melanoma
IGROV1 ovarian = tested on: IGROV1 ovarian
T-47D breast = tested on: T-47D breast
COLO 205 colon = tested on: COLO 205 colon

CC(C)(C)OC(=O)NCCCCn1c2c(c3ccccc3c1=O)C(=O)c1ccccc1-2 showed a GI50 (OVCAR-8 ovarian) of 8.75 µM, a TGI (OVCAR-8 ovarian) of 30.3 µM and a GI50 (TK-10 renal) of 20.7 µM. For the same compound, the TGI (TK-10 renal) was 47.7 µM, the GI50 (KM12 colon) was 28.9 µM and the TGI (KM12 colon) was greater than 100 µM. For the same compound, the GI50 (NCI-H522 lung) was 27 µM, the TGI (NCI-H522 lung) was greater than 100 µM and the GI50 (SK-OV-3 ovarian) was 50.2 µM. For the same compound, the TGI (SK-OV-3 ovarian) was greater than 100 µM, the GI50 (HCT-15 colon) was 35.3 µM and the TGI (HCT-15 colon) was greater than 100 µM. It also gave a GI50 (SF-268 CNS) of 20.9 µM, a TGI (SF-268 CNS) greater than 100 µM and a GI50 (OVCAR-4 ovarian) of 47.8 µM. It also gave a TGI (OVCAR-4 ovarian) greater than 100 µM, a GI50 (BT-549 breast) of 24.5 µM and a TGI (BT-549 breast) of 80.6 µM. It also gave a GI50 (RPMI-8226 leukemia) of 4.42 µM, a TGI (RPMI-8226 leukemia) greater than 100 µM and a GI50 (SW-620 colon) of 25.3 µM. The TGI (SW-620 colon) was greater than 100 µM, the GI50 (K-562 leukemia) was 24.8 µM and the TGI (K-562 leukemia) was greater than 100 µM. For the same compound, the GI50 (MCF7 breast) was 21.3 µM, the TGI (MCF7 breast) was greater than 100 µM and the GI50 (RXF 393 renal) was 23.1 µM. It also gave a TGI (RXF 393 renal) greater than 100 µM, a GI50 (HL-60(TB) leukemia) of 4.71 µM and a TGI (HL-60(TB) leukemia) of 59.4 µM. It also gave a GI50 (SK-MEL-2 melanoma) of 52.1 µM, a TGI (SK-MEL-2 melanoma) greater than 100 µM and a GI50 (HCT-116 colon) of 5.21 µM. It also gave a TGI (HCT-116 colon) greater than 100 µM, a GI50 (OVCAR-5 ovarian) of 44.7 µM and a TGI (OVCAR-5 ovarian) greater than 100 µM. It also gave a GI50 (SK-MEL-28 melanoma) of 38.2 µM, a TGI (SK-MEL-28 melanoma) greater than 100 µM and a GI50 (SF-539 CNS) of 25.9 µM. It also gave a TGI (SF-539 CNS) of 62.8 µM, a GI50 (U251 CNS) of 15.9 µM and a TGI (U251 CNS) of 37.6 µM. For the same compound, the GI50 (PC-3 prostate) was 8.71 µM, the TGI (PC-3 prostate) was greater than 100 µM and the GI50 (MDA-MB-231 breast) was 17.1 µM. It also gave a TGI (MDA-MB-231 breast) of 53.1 µM, a GI50 (SF-295 CNS) of 16.5 µM and a TGI (SF-295 CNS) of 56.1 µM. It also gave a GI50 (ACHN renal) of 15.7 µM, a TGI (ACHN renal) of 50.2 µM and a GI50 (MALME-3M melanoma) of 27.1 µM. It also gave a TGI (MALME-3M melanoma) of 80.6 µM, a GI50 (A549 NSCLC) of 17.6 µM and a TGI (A549 NSCLC) of 44.5 µM. For the same compound, the GI50 (SNB-75 CNS) was 35.4 µM, the TGI (SNB-75 CNS) was greater than 100 µM and the GI50 (DU-145 prostate) was 9.59 µM. It also gave a TGI (DU-145 prostate) greater than 100 µM, a GI50 (SR leukemia) of 3.59 µM and a TGI (SR leukemia) of 42.4 µM. For the same compound, the GI50 (OVCAR-3 ovarian) was 5.42 µM, the TGI (OVCAR-3 ovarian) was 23.3 µM and the GI50 (UACC-257 melanoma) was 29.7 µM. The TGI (UACC-257 melanoma) was 71.1 µM, the GI50 (CCRF-CEM leukemia) was 9.52 µM and the TGI (CCRF-CEM leukemia) was greater than 100 µM. It also gave a GI50 (LOX IMVI melanoma) of 12.5 µM, a TGI (LOX IMVI melanoma) of 36.7 µM and a GI50 (HOP-62 NSCLC) of 28.7 µM. For the same compound, the TGI (HOP-62 NSCLC) was greater than 100 µM, the GI50 (NCI-H460 lung) was 5.9 µM and the TGI (NCI-H460 lung) was 34.8 µM. The GI50 (SNB-19 CNS) was 25.1 µM, the TGI (SNB-19 CNS) was 94.5 µM and the GI50 (UO-31 renal) was 8.29 µM. The TGI (UO-31 renal) was greater than 100 µM, the GI50 (MDA-MB-435) was 35.3 µM and the TGI (MDA-MB-435) was greater than 100 µM. It also gave a GI50 (MOLT-4 leukemia) of 4.32 µM, a TGI (MOLT-4 leukemia) greater than 100 µM and a GI50 (HT29 colon) of 32.4 µM. The TGI (HT29 colon) was greater than 100 µM, the GI50 (NCI-H23 lung) was 20.8 µM and the TGI (NCI-H23 lung) was 43.4 µM. The GI50 (HS 578T breast) was 20.9 µM, the TGI (HS 578T breast) was 52.8 µM and the GI50 (A498 renal) was 23.4 µM. It also gave a TGI (A498 renal) of 65.3 µM, a GI50 (EKVX NSCLC) of 61.5 µM and a TGI (EKVX NSCLC) greater than 100 µM. It also gave a GI50 (SN12C renal) of 23.1 µM, a TGI (SN12C renal) of 69.3 µM and a GI50 (CAKI-1 renal) of 10.7 µM. For the same compound, the TGI (CAKI-1 renal) was 37.2 µM, the GI50 (NCI-H226 lung) was 14.1 µM and the TGI (NCI-H226 lung) was 51.2 µM. The GI50 (NCI/ADR-RES ovarian) was 15.7 µM, the TGI (NCI/ADR-RES ovarian) was 45.7 µM and the GI50 (UACC-62 melanoma) was 10.9 µM. The TGI (UACC-62 melanoma) was 27.8 µM, the GI50 (786-0 renal) was 21.7 µM and the TGI (786-0 renal) was 55.6 µM. For the same compound, the GI50 (M14 melanoma) was 36.4 µM, the TGI (M14 melanoma) was greater than 100 µM and the GI50 (IGROV1 ovarian) was 23 µM. For the same compound, the TGI (IGROV1 ovarian) was greater than 100 µM, the GI50 (T-47D breast) was 21.9 µM and the TGI (T-47D breast) was 79.8 µM. It also gave a GI50 (COLO 205 colon) of 44 µM and a TGI (COLO 205 colon) greater than 100 µM.
